From PubChem BioAssay (NCI)
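Dose response: 5 concentrations. Exposure: 48 h. Format: 96-well plates. Endpoint: linear interpolation; highest concentration if not reached. At the TGI there is no net growth.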

Assays:
Assay in all cases: NCI anticancer screen, dose series, 48 h
SF-295 CNS = tested on: SF-295 CNS
NCI/ADR-RES ovarian = tested on: NCI/ADR-RES ovarian
UACC-62 melanoma = tested on: UACC-62 melanoma
IGROV1 ovarian = tested on: IGROV1 ovarian
NCI-H460 lung = tested on: NCI-H460 lung
MDA-MB-231 breast = tested on: MDA-MB-231 breast
K-562 leukemia = tested on: K-562 leukemia
NCI-H522 lung = tested on: NCI-H522 lung
A549 NSCLC = tested on: A549 NSCLC
SNB-75 CNS = tested on: SNB-75 CNS
CCRF-CEM leukemia = tested on: CCRF-CEM leukemia
OVCAR-4 ovarian = tested on: OVCAR-4 ovarian
MDA-MB-435 = tested on: MDA-MB-435
NCI-H226 lung = tested on: NCI-H226 lung
786-0 renal = tested on: 786-0 renal
SW-620 colon = tested on: SW-620 colon
LOX IMVI melanoma = tested on: LOX IMVI melanoma
OVCAR-8 ovarian = tested on: OVCAR-8 ovarian
T-47D breast = tested on: T-47D breast
SNB-19 CNS = tested on: SNB-19 CNS
TK-10 renal = tested on: TK-10 renal
HCT-116 colon = tested on: HCT-116 colon
SK-MEL-28 melanoma = tested on: SK-MEL-28 melanoma
RPMI-8226 leukemia = tested on: RPMI-8226 leukemia
SK-MEL-5 melanoma = tested on: SK-MEL-5 melanoma
KM12 colon = tested on: KM12 colon
CAKI-1 renal = tested on: CAKI-1 renal
DU-145 prostate = tested on: DU-145 prostate
EKVX NSCLC = tested on: EKVX NSCLC
HL-60(TB) leukemia = tested on: HL-60(TB) leukemia
MALME-3M melanoma = tested on: MALME-3M melanoma
HCT-15 colon = tested on: HCT-15 colon
SK-MEL-2 melanoma = tested on: SK-MEL-2 melanoma
MOLT-4 leukemia = tested on: MOLT-4 leukemia
COLO 205 colon = tested on: COLO 205 colon
SK-OV-3 ovarian = tested on: SK-OV-3 ovarian
HOP-62 NSCLC = tested on: HOP-62 NSCLC
HS 578T breast = tested on: HS 578T breast
HCC-2998 colon = tested on: HCC-2998 colon
SF-539 CNS = tested on: SF-539 CNS
UO-31 renal = tested on: UO-31 renal
ACHN renal = tested on: ACHN renal
U251 CNS = tested on: U251 CNS
MCF7 breast = tested on: MCF7 breast
A498 renal = tested on: A498 renal
NCI-H23 lung = tested on: NCI-H23 lung
MDA-N = tested on: MDA-N
SR leukemia = tested on: SR leukemia
OVCAR-5 ovarian = tested on: OVCAR-5 ovarian
M14 melanoma = tested on: M14 melanoma
HT29 colon = tested on: HT29 colon
BT-549 breast = tested on: BT-549 breast
SN12C renal = tested on: SN12C renal
OVCAR-3 ovarian = tested on: OVCAR-3 ovarian
PC-3 prostate = tested on: PC-3 prostate
SF-268 CNS = tested on: SF-268 CNS
UACC-257 melanoma = tested on: UACC-257 melanoma
RXF 393 renal = tested on: RXF 393 renal

Measured: TGI

C=C(C)c1cc(C(C)(C)C)cc(C(=C)C)c1S(C)(=O)=O
> 100 µM: SF-295 CNS | NCI/ADR-RES ovarian | UACC-62 melanoma | IGROV1 ovarian | NCI-H460 lung | MDA-MB-231 breast | K-562 leukemia | NCI-H522 lung | A549 NSCLC | SNB-75 CNS | CCRF-CEM leukemia | OVCAR-4 ovarian | MDA-MB-435 | NCI-H226 lung | 786-0 renal | SW-620 colon | LOX IMVI melanoma | OVCAR-8 ovarian | T-47D breast | SNB-19 CNS | TK-10 renal | HCT-116 colon | SK-MEL-28 melanoma | RPMI-8226 leukemia | SK-MEL-5 melanoma | KM12 colon | CAKI-1 renal | DU-145 prostate | EKVX NSCLC | HL-60(TB) leukemia | MALME-3M melanoma | HCT-15 colon | SK-MEL-2 melanoma | MOLT-4 leukemia | COLO 205 colon | SK-OV-3 ovarian | HOP-62 NSCLC | HS 578T breast | HCC-2998 colon | SF-539 CNS | UO-31 renal | ACHN renal | U251 CNS | MCF7 breast | A498 renal | NCI-H23 lung | MDA-N | SR leukemia | OVCAR-5 ovarian | M14 melanoma | HT29 colon | BT-549 breast | SN12C renal | OVCAR-3 ovarian | PC-3 prostate | SF-268 CNS

Cc1nc2c(=O)[nH]ncc2[nH]1
> 100 µM: SF-295 CNS | NCI/ADR-RES ovarian | UACC-62 melanoma | IGROV1 ovarian | NCI-H460 lung | MDA-MB-231 breast | K-562 leukemia | A549 NSCLC | SNB-75 CNS | CCRF-CEM leukemia | MDA-MB-435 | NCI-H226 lung | 786-0 renal | SW-620 colon | OVCAR-8 ovarian | T-47D breast | SNB-19 CNS | TK-10 renal | HCT-116 colon | SK-MEL-28 melanoma | RPMI-8226 leukemia | SK-MEL-5 melanoma | KM12 colon | CAKI-1 renal | DU-145 prostate | EKVX NSCLC | HL-60(TB) leukemia | HCT-15 colon | SK-MEL-2 melanoma | MOLT-4 leukemia | COLO 205 colon | HOP-62 NSCLC | HS 578T breast | SF-539 CNS | UO-31 renal | ACHN renal | U251 CNS | MCF7 breast | A498 renal | NCI-H23 lung | MDA-N | SR leukemia | OVCAR-5 ovarian | M14 melanoma | HT29 colon | UACC-257 melanoma | BT-549 breast | SN12C renal | RXF 393 renal | OVCAR-3 ovarian | PC-3 prostate | SF-268 CNS

COC(=O)C(Cc1ccc(OC)cc1O)NC(=O)OC(C)(C)C (centres undefined)
> 100 µM: SF-295 CNS | NCI/ADR-RES ovarian | UACC-62 melanoma | IGROV1 ovarian | NCI-H460 lung | MDA-MB-231 breast | K-562 leukemia | NCI-H522 lung | A549 NSCLC | SNB-75 CNS | CCRF-CEM leukemia | OVCAR-4 ovarian | MDA-MB-435 | NCI-H226 lung | 786-0 renal | SW-620 colon | LOX IMVI melanoma | OVCAR-8 ovarian | T-47D breast | SNB-19 CNS | TK-10 renal | HCT-116 colon | SK-MEL-28 melanoma | SK-MEL-5 melanoma | KM12 colon | CAKI-1 renal | DU-145 prostate | EKVX NSCLC | HL-60(TB) leukemia | MALME-3M melanoma | HCT-15 colon | SK-MEL-2 melanoma | MOLT-4 leukemia | COLO 205 colon | SK-OV-3 ovarian | HOP-62 NSCLC | HS 578T breast | HCC-2998 colon | SF-539 CNS | UO-31 renal | ACHN renal | U251 CNS | MCF7 breast | NCI-H23 lung | MDA-N | SR leukemia | OVCAR-5 ovarian | M14 melanoma | HT29 colon | BT-549 breast | SN12C renal | RXF 393 renal | OVCAR-3 ovarian | PC-3 prostate | SF-268 CNS
95 µM: UACC-257 melanoma
